In article PMC11767586, “Cuphea hookeriana: Phytochemical Profile and the Cosmeceutical and Dermatological Properties of Its Active Fraction from the Whole Plant” (Molecules, 2025) one finds IC50 data, which are given here for one compound.

≈ marks a conversion by molar mass, not a printed value.

This test addresses T1, mushroom tyrosinase.
T1 construct: gene PPO1
In words: L-dopa oxidation, absorbance at […] nm. As to conditions: L-dopa 2 mM stock, phosphate pH 6.8, 37 °C, 30 min; positive control. Type of test: biochemical.

As to `OC[C@H]1O[C@H](Oc2ccc(O)cc2)[C@H](O)[C@@H](O)[C@@H]1O` [α-arbutin], the IC50 – broadly, the concentration that inhibits the measured activity by half – is 270 µg/mL (≈ 992 µM).
